Test results taken from ChEMBL document CHEMBL6153054, “Synthesis and discovery of simplified pleurotin analogs bearing tricyclic core as novel thioredoxin reductase inhibitors” (Eur J Med Chem, 2025).
One block for each compound: values may come before it. The source made the active and inactive calls. The calls are words filed in the database; no cut-off is given here.

Tests used:
MCF7 = assay: Antiproliferative activity against human MCF7 cells assessed as reduction in cell growth after 72 hrs by MTT assay; assay type: functional, cell-based; conditions: MCF7, 72 h
HepG2 [1] = assay: Antiproliferative activity against human HepG2 cells assessed as reduction in cell growth after 72 hrs by MTT assay; assay type: functional, cell-based; conditions: HepG2, 72 h
[2] = Inhibition of TrxR (unknown origin); set-up: species or system Homo sapiens
HepG2 [3] = assay: Induction of intracellular ROS generation in human HepG2 cells assessed as increase in green fluorescence at 6.25 to 12.5 uM incubated for 6 hrs by DCFH-DA probe based fluorescence microscopic analysis; assay type: functional, cell-based; conditions: dose 6.25-12.5 µM
HepG2 [4] = assay: Induction of apoptosis in human HepG2 cells assessed as late apoptotic cells incubated for 24 hrs by Annexin V/PI staining based flow cytometry analysis; assay type: functional, cell-based; conditions: dose 12.5-50 µM
HepG2 [5] = assay: Induction of apoptosis in human HepG2 cells assessed as necrotic cells at 25 uM incubated for 24 hrs by Annexin V/PI staining based flow cytometry analysis (reference value: 0.21%); assay type: functional
HepG2 [6] = assay: Induction of apoptosis in human HepG2 cells assessed as late apoptotic cells at 25 uM incubated for 24 hrs by Annexin V/PI staining based flow cytometry analysis (reference value: 1.30%); assay type: functional
HepG2 [7] = assay: Induction of apoptosis in human HepG2 cells assessed as viable cells at 12.5 uM incubated for 24 hrs by Annexin V/PI staining based flow cytometry analysis (reference value: 94.9%); assay type: functional; conditions: read-out: Activity
HepG2 [8] = assay: Induction of apoptosis in human HepG2 cells assessed as early apoptotic cells at 25 uM incubated for 24 hrs by Annexin V/PI staining based flow cytometry analysis (reference value: 3.64%); assay type: functional
[9] = Inhibition of TrxR (unknown origin) by […]-reagent based assay; set-up: species or system Homo sapiens
HepG2 [10] = assay: Induction of apoptosis in human HepG2 cells assessed as viable cells at 50 uM incubated for 24 hrs by Annexin V/PI staining based flow cytometry analysis (reference value: 94.9%); assay type: functional; conditions: read-out: Activity
HepG2 [11] = assay: Induction of apoptosis in human HepG2 cells assessed as early apoptotic cells at 12.5 uM incubated for 24 hrs by Annexin V/PI staining based flow cytometry analysis (reference value: 3.64%); assay type: functional
HepG2 [12] = assay: Induction of apoptosis in human HepG2 cells assessed as late apoptotic cells at 50 uM incubated for 24 hrs by Annexin V/PI staining based flow cytometry analysis (reference value: 1.30%); assay type: functional
HepG2 [13] = assay: Induction of apoptosis in human HepG2 cells assessed as early apoptotic cells incubated for 24 hrs by Annexin V/PI staining based flow cytometry analysis; assay type: functional, cell-based; conditions: dose 12.5-50 µM
HepG2 [14] = assay: Induction of intracellular ROS generation in human HepG2 cells at 6.25 uM incubated for 3 to 12 hrs by DCFH-DA probe based fluorescence microscopic analysis; assay type: functional, cell-based; conditions: time 3-12 hrs
HepG2 [15] = assay: Inhibition of TrxR in human HepG2 cells assessed as decrease in green fluorescence at 12.5 to 50 uM incubated for 24 hrs by immunofluorescence assay; assay type: cell-based; conditions: dose 12.5-50 µM
HepG2 [16] = assay: Induction of intracellular ROS generation in human HepG2 cells assessed as increase in red fluorescence at 6.25 to 12.5 uM incubated for 6 hrs by DHE probe based fluorescence microscopic analysis; assay type: functional, cell-based; conditions: dose 6.25-12.5 µM
HepG2 [17] = assay: Induction of apoptosis in human HepG2 cells assessed as necrotic cells at 12.5 uM incubated for 24 hrs by Annexin V/PI staining based flow cytometry analysis (reference value: 0.21%); assay type: functional
HepG2 [18] = assay: Induction of apoptosis in human HepG2 cells assessed as early apoptotic cells at 50 uM incubated for 24 hrs by Annexin V/PI staining based flow cytometry analysis (reference value: 3.64%); assay type: functional
Homo sapiens [19] = species: Homo sapiens; assay: Inhibition of TrxR (unknown origin) at 8 uM by […]-reagent based assay relative to control
HepG2 [20] = assay: Inhibition of TrxR in human HepG2 cells incubated for 24 hrs by immunofluorescence assay; assay type: cell-based; conditions: dose 12.5-50 µM
HepG2 [21] = assay: Induction of apoptosis in human HepG2 cells assessed as necrotic cells at 50 uM incubated for 24 hrs by Annexin V/PI staining based flow cytometry analysis (reference value: 0.21%); assay type: functional
HepG2 [22] = assay: Induction of apoptosis in human HepG2 cells assessed as viable cells at 25 uM incubated for 24 hrs by Annexin V/PI staining based flow cytometry analysis (reference value: 94.9%); assay type: functional; conditions: read-out: Activity
HepG2 [23] = assay: Induction of apoptosis in human HepG2 cells assessed as late apoptotic cells at 12.5 uM incubated for 24 hrs by Annexin V/PI staining based flow cytometry analysis (reference value: 1.30%); assay type: functional
Homo sapiens [24] = species: Homo sapiens; assay: Inhibition of TrxR (unknown origin) at 5 uM by […]-reagent based assay relative to control
[25] = Inhibition of TrxR in human SGC-7901 cells; assay type: cell-based

Compound: C[C@H]1CO[C@H]2C3=C(C(=O)C=CC3=O)[C@@H]3OC(=O)[C@H]4CC[C@@H]5[C@H]1CC[C@@]52[C@@H]43
- IC50 (MCF7): > 100 µM
- IC50 (HepG2 [1]): 55 µM
- IC50 [2]: 0.17 µM

Compound: C[C@@]12CCC[C@](O)(c3ccc(C#N)cc3)[C@@H]1CC1=C(C2)C(=O)C=CC1=O
- Activity (HepG2 [3]): Active
- Activity (HepG2 [4]): Dose-dependent-effect
- Activity (HepG2 [5]): 1.39%
- Activity (HepG2 [6]): 3.39%
- viability at 12.5 µM (HepG2 [7]): 92.2%
- Activity (HepG2 [8]): 13.9%
- IC50 [9]: 3.5 µM
- viability at 50 µM (HepG2 [10]): 54%
- Activity (HepG2 [11]): 5.54%
- Activity (HepG2 [12]): 12.6%
- IC50 (MCF7): 28.2 µM
- Activity (HepG2 [13]): Dose-dependent-effect
- IC50 (HepG2 [1]): 19.4 µM
- Activity (HepG2 [14]): Active
- inhibition (HepG2 [15]): Active
- Activity (HepG2 [16]): Active
- Activity (HepG2 [17]): 0.3%
- Activity (HepG2 [18]): 22.7%
- inhibition (Homo sapiens [19]): 100%
- inhibition (HepG2 [20]): Dose-dependent-effect
- Activity (HepG2 [21]): 10.7%
- viability at 25 µM (HepG2 [22]): 81.3%
- Activity (HepG2 [23]): 1.82%
- inhibition (Homo sapiens [24]): 71.9%

Compound: C[C@@]12CCCC(=O)[C@@H]1[C@H](O)C1=C(C2)C(=O)C=CC1=O
- IC50 (MCF7): 32.4 µM
- IC50 (HepG2 [1]): 48.5 µM
- inhibition (Homo sapiens [24]): 60.4%

Compound: C[C@@]12CCC[C@@H](CO)[C@@H]1CC1=C(C2)C(=O)C=CC1=O
- IC50 (MCF7): 43.7 µM
- IC50 (HepG2 [1]): 71.7 µM
- inhibition (Homo sapiens [24]): 13.7%

Compound: C=C1CCC[C@@]2(C)CC3=C(C[C@@H]12)C(=O)C=CC3=O [CORDIACHROME B]
- IC50 (MCF7): 59.3 µM
- IC50 (HepG2 [1]): > 100 µM
- inhibition (Homo sapiens [24]): 19.6%

Compound: C[C@@]12CCCC(=O)[C@@H]1CC1=C(C2)C(=O)C=CC1=O
- IC50 (MCF7): 30.7 µM
- IC50 (HepG2 [1]): 62.6 µM
- inhibition (Homo sapiens [24]): 18.5%

Compound: C=CC(=O)O[C@@H]1C2=C(C[C@]3(C)CCCC(=O)[C@H]13)C(=O)C=CC2=O
- IC50 (MCF7): > 100 µM
- IC50 (HepG2 [1]): > 100 µM

Compound: C[C@@]12CCC[C@](O)(c3ccccn3)[C@@H]1CC1=C(C2)C(=O)C=CC1=O
- IC50 (MCF7): 28.8 µM
- IC50 (HepG2 [1]): 45.3 µM
- inhibition (Homo sapiens [24]): 23.5%

Compound: Cc1ccc([C@@]2(O)CCC[C@@]3(C)CC4=C(C[C@H]32)C(=O)C=CC4=O)cc1
- IC50 (MCF7): 36.9 µM
- IC50 (HepG2 [1]): > 100 µM
- inhibition (Homo sapiens [24]): 11.8%

Compound: COc1ccccc1/C=C/C(=O)/C=C/c1ccccc1OC
- IC50 [25]: ~50 µM

Compound: C[C@@]12CCC[C@@H](C(=O)O)[C@@H]1CC1=C(C2)C(=O)C=CC1=O
- IC50 (MCF7): 43.3 µM
- IC50 (HepG2 [1]): 27.8 µM
- inhibition (Homo sapiens [24]): 21.6%

Compound: C[C@@]12CCC[C@](O)(c3ccoc3)[C@@H]1CC1=C(C2)C(=O)C=CC1=O
- IC50 (MCF7): > 100 µM
- IC50 (HepG2 [1]): > 100 µM

Second part, the compound after the results:

- IC50 (MCF7): 13.6 µM
- IC50 (HepG2 [1]): 69.5 µM
- inhibition (Homo sapiens [24]): 15.7%
Compound: C[C@@]12CCC[C@](O)(c3ccc(C(F)(F)F)cc3)[C@@H]1CC1=C(C2)C(=O)C=CC1=O

- IC50 (MCF7): 15.6 µM
- IC50 (HepG2 [1]): 36.6 µM
- inhibition (Homo sapiens [24]): 34.9%
Compound: C[C@@]12CCC[C@@H](O)[C@@H]1CC1=C(C2)C(=O)C=CC1=O

- IC50 [9]: 6.23 µM
- IC50 (MCF7): 23.4 µM
- IC50 (HepG2 [1]): 10.9 µM
- IC50 [2]: 6.23 µM
- inhibition (Homo sapiens [24]): 34.2%
Compound: C=C1C(=O)O[C@H]2[C@H]1CCC(C)=C1CC[C@@](C)(O)[C@@H]12 [MICHELIOLIDE]

- IC50 (MCF7): 17.4 µM
- IC50 (HepG2 [1]): > 100 µM
- inhibition (Homo sapiens [24]): 9.8%
Compound: COc1ccc([C@@]2(O)CCC[C@@]3(C)CC4=C(C[C@H]32)C(=O)C=CC4=O)cc1

- IC50 (MCF7): 19.6 µM
- IC50 (HepG2 [1]): 46.5 µM
- inhibition (Homo sapiens [24]): 19.6%
Compound: CCc1ccc([C@@]2(O)CCC[C@@]3(C)CC4=C(C[C@H]32)C(=O)C=CC4=O)cc1

- IC50 (MCF7): 16.4 µM
- IC50 (HepG2 [1]): 59.6 µM
- inhibition (Homo sapiens [24]): 19.7%
Compound: C=CC(=O)O[C@@H]1CCC[C@@]2(C)CC3=C(C[C@@H]12)C(=O)C=CC3=O

- IC50 (MCF7): 24.2 µM
- IC50 (HepG2 [1]): 34 µM
- inhibition (Homo sapiens [24]): 19.6%
Compound: C[C@@]12CCC[C@](O)(c3ccccc3)[C@@H]1CC1=C(C2)C(=O)C=CC1=O
